Measurements from patent publication US8664271B2, “Stabilized leukotriene B4 (LTB4) agent pharmaceutical formulation” (LTB4 Sweden AB, priority 2004, dated 2014).

Legend:
[1] = Pharmacokinetics of LTB4 in rats after i.v., i.j. and s.c. administration (plasma ELISA); assay type: in vivo, female Sprague-Dawley rats; details: rat
Description: In this example, the pharmacokinetics of LTB4 in rats following administration by three distinct routes, intravenous (i.v.), intra-jejunal (i.j.) and sub-cutaneous (s.c.) was investigated.
Three groups of three female Sprague-Dawley rats (weighing ˜250 g) were used; animals were fasted for 18 hours, anesthetised with ketamine/xylazine and their jugular veins were canulated to allow for repeated blood sampling. LTB4 was administered at the dose of 50 μg/kg at the dose volume of 4 ml/kg for all routes. Blood samples (0.5 ml/sample) where taken at 0, 0.5, 1, 2, 5, 15, 30, and 60 minutes following LTB4 injection. The blood samples where immediately anti-coagulated with EDTA and transferred into an ice-water bath until centrifugation for plasma isolation. Plasma samples were stored at −80° C. until assayed for LTB4 content using a commercial ELISA (Cayman Chemicals, Ann Arbor, Mich., USA). The i.v administration (15 sec. bolus) of LTB4 was done through the tail vein; for i.j. administration, LTB4 was directly injected in the jejunum after opening of the abdominal cavity; s.c. administration was done in the dorsal region.

[2] = Forced degradation of ethanolic solutions of LTB4 (acid form and Na salt); assay type: physicochemical
Description: The ethanolic solution of LTB4 (acid form) (EtOH/water, 95/5) obtained from the manufacturer (Cascade Biochem, UK) was diluted with EtOH/water, 95/5 to generate ethanolic solutions of LTB4 (acid form) at 9 and 0.9 mg/ml. Ethanolic solutions of the sodium salt of LTB4 at 9 and 0.9 mg/ml were obtained by adding 1.05 equivalent of sodium hydroxide. Solutions of the sodium salt of LTB4 at the concentration of 9 and 0.9 mg/ml in 75/25 EtOH/10 mM glycine in water at pH 10.5 (sodium hydroxide), were obtained by mixing 3 volumes of solutions of the sodium salt of LTB4 at 12 and 1.2 mg/ml in EtOH/water, 95/5 with 1 volume of 40 mM glycine buffer at pH 10.5. Solutions were dispensed in 2 ml vials for storage under air in the dark at −80° C. and 40±5° C. for 17 months prior to reverse phase HPLC analysis of LTB4 and impurities as described in Example 1.

CCCCC/C=C\C[C@@H](O)/C=C/C=C/C=C\[C@@H](O)CCCC(=O)O [LTB4, 5S,12R-dihydroxy-6,8,10,14(Z,E,E,Z)-eicosatetrae-noic acid]
time of maximum plasma LTB4 level ([1]; i.j. administration, 50 μg/kg): 5 min | time of return of LTB4 plasma levels to baseline ([1]; i.j. administration, 50 μg/kg): 30 min | AUC for LTB4 plasma concentration, comparison of routes ([1]; i.v. injection, 50 μg/kg, compared with i.j. and s.c.): highest AUC | AUC for i.j. injection relative to that of i.v. LTB4 ([1]; in vivo, 50 ug/kg): 35% | impurity level ([2]; 0.9 mg/ml in 95/5 EtOH/water, 17 months at 40° C.): 62 % of AUC | level of impurities ([2]; 9.0 mg/ml in EtOH/water 95/5, 17 months at 40° C., AUC at 270 nm): 100 % of AUC
